Patent US20150315218A1, “SALTS OF PRODRUGS OF PIPERAZINE AND SUBSTITUTED PIPERIDINE ANTIVIRAL AGENTS” (Bristol-Myers Squibb Company, priority 2004, published 2015)
“Also recorded” adds a separate entry of the source. Structures can show the parent of a compound that is named as a salt. Where two headings read alike, the source gives them in different places. Each block holds one molecule with its values, some of them ahead of it.

Columns and labels:
in vitro [1] = conditions: rat, serum
[2] = molecular target: T1, human placental alkaline phosphatase (ALP) (Homo sapiens, UniProt P05187); assay: Hydrolysis of prodrug in human placental ALP solutions; format: in vitro ADME; conditions: human placental ALP solution, 37°C, 120 min, read-out: t1/2 (min) of prodrug disappearance
T1 construct: To study the hydrolysis of lab in a purified form of human ALP, Iab was incubated in human placental ALP solutions; host or cells: human placenta (inferred from the name and from 'ALP derived from humans')
T1 sequence (P05187 23-506 limits assumed): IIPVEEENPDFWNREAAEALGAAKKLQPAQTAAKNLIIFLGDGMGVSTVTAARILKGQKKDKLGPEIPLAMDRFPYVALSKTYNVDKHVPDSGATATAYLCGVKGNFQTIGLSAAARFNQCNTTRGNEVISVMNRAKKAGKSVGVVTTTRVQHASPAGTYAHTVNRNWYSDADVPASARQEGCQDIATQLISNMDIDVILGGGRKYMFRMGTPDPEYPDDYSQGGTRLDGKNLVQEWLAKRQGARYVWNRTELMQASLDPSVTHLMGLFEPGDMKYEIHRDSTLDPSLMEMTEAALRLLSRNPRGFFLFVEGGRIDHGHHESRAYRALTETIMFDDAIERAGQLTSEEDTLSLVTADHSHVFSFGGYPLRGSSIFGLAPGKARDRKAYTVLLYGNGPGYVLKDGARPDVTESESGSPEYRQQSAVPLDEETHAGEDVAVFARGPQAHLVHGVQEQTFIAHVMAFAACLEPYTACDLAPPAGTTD
Procedure: (§1) Solid human placental ALP was obtained from Sigma (P-3895, St. Louis, Mo.). […] Solutions of 100 and 10 units/L were obtained by serial dilution. Iab was incubated in the 10, 100 and 1000 units/L solutions (n=2) at 37° C. for 2 hr. The starting concentration of Iab in the incubation was 10 μM. Aliquots of 100 μL samples were taken at pre-determined times and added into K2EDTA microtainers followed by the addition of 200 μL of acetonitrile.
as §1, with “Ibb” for “Iab”
as §1, with “Icb” for “Iab”, “acetonitrile. The supernatant was analyzed for both Icb and IVe by LC/MS/MS.” for “acetonitrile.”

in vitro [3] = conditions: monkey, serum
[4] = Stability of prodrug in fresh EDTA blood (dog); conditions: for conversion of prodrug to parent in blood containing EDTA: dog blood, 37°C, 60 min (Iab) or 90 min (Ibb, Icb); for Ibb: Ibb in fresh dog EDTA blood, 37° C., n = 2
[5] = Stability of prodrug in fresh EDTA blood (human); conditions: for Iab / IVa Formed: Human EDTA blood; for Ibb: Ibb in fresh human EDTA blood, 37° C., n = 2
[6] = Aqueous / crystalline solubility; conditions: aqueous solution
human hepatocytes = assay: Hydrolysis of prodrug in hepatocytes (human); format: in vitro ADME; conditions: human hepatocytes, qualitative
Procedure: (§2) The in vitro intrinsic clearance of Ibb in hepatocytes (Clint) was calculated as follows: Clint(μL/min/million cells)=Rate/CE where Rate is the rate of metabolism in hepatocytes (pmol/min/million cells), and CE is the concentration of Ibb in the incubation. The in vitro intrinsic clearance of Icb in hepatocytes (Clint) was calculated as follows: Clint(μL/min/million cells)=Rate/CE where Rate is the rate of metabolism in hepatocytes (pmol/min/million cells), and CE is the concentration of Icb in the incubation.

in vitro [7] = conditions: dog, serum
[8] = Capsule formulation studies of IVa (clinical form, spray dried form) vs Iab in fasted dogs; format: in vivo, dog; conditions: capsules, 20 mg/kg of IVa equivalent
Procedure: Additional formulation studies of IVa were conducted in fasted dogs (n=2 per dose group). The dogs were administered either the clinical form or the spray dried form of IVa in capsules. The clinical capsule form of IVa was administered at a single dose of 20 mg/kg. The spray dried form of IVa was administered at 20, 75 and 200 mg/kg.

rat hepatocytes = assay: Hydrolysis of prodrug in hepatocytes (rat); format: in vitro ADME; conditions: rat hepatocytes, qualitative
Procedure: as §2

[9] = Solution and solid stability; format: physicochemical
[10] = Effect of food on oral absorption of IVa in dogs after Iab or IVa capsules; format: in vivo, dog
Procedure: To study the effect of food on the oral absorption of IVa after administration of Iab and IVa, these two compounds were administered in capsules as solid to a group of three dogs in a cross-over fashion under overnight fasting and fed conditions. There was a one-week washout period between each study. Iab was administered at 200 mg per dog (ca 20 mg/kg) of IVa equivalent; IVa was administered in a clinical capsule formulation at 200 mg per dog (ca 20 mg/kg). In the studies where the dogs were fed, the following meal was prepared: 2 slices of bacon, 2 eggs, 2 pieces of toast with butter and jelly, 4 oz. hash browns and 8 oz. of whole milk. After homogenization using a laboratory blender, the meal was equally divided into five portions and kept frozen. Before the study, the meals were thawed and each dog was fed one portion.

[11] = Stability of prodrug in Tris-HCl buffer; conditions: for stability / conversion of prodrug to parent in Tris-HCl buffer: 60 min (Iab) or 90 min (Ibb, Icb); for Ibb: Ibb in Tris-HCl buffer, 37° C., n = 2
[12] = Stability of prodrug in fresh EDTA blood (monkey); conditions: for Iab / IVa Formed: Monkey EDTA blood; for Ibb: Ibb in fresh monkey EDTA blood, 37° C., n = 2
[13] = pH 7.5, ALP Activity 10 Units/L
[14] = pH 7.5, ALP Activity 100 Units/L
[15] = pH 7.5, ALP Activity 1000 Units/L

half-life at 10 μM (in vitro [1]): 1.33 h | half-life at 10 μM [2, 13]: 186 min | half-life at 10 μM [2, 14]: 14 min | half-life at 10 μM [2, 15]: 1.4 min | half-life at 10 μM (in vitro [3]): 6.08 h | conversion of prodrug to parent in blood containing EDTA [4]: approximately 6% | Iab / IVa Formed ([5]; 0 min): 11 µM | Iab / IVa Formed ([5]; 15 min): 11 µM | Iab / IVa Formed ([5]; 30 min): 7.1 µM | Iab / IVa Formed ([5]; 45 min): 9.8 µM | Iab / IVa Formed ([5]; 60 min): 9.8 µM | hydrolysis in the presence of hepatocytes (human hepatocytes): hydrolyzed | half-life at 10 μM (in vitro [7]): 3.03 h | AUC of IVa from the prodrug relative to the clinical form of IVa [8]: 37 times | Cmax of IVa from the prodrug relative to the clinical form of IVa [8]: 45 times | hydrolysis in the presence of hepatocytes (rat hepatocytes): hydrolyzed | AUC of IVa from Iab capsules (fasted dogs) relative to fed dogs given IVa clinical capsule ([10]; 200 mg/dog of IVa equivalent): 4 times | Cmax of IVa from Iab capsules (fasted dogs) relative to fed dogs given IVa clinical capsule ([10]; 200 mg/dog of IVa equivalent): 6 times | Cmax of IVa from Iab capsules relative to IVa clinical capsule in fasted dogs ([10]; fasted dogs, 200 mg/dog of IVa equivalent): 58 times | stability / conversion of prodrug to parent in Tris-HCl buffer ([11]; 37°C): stable | Iab / IVa Formed ([11]; Tris-HCl buffer (0.1 M, pH 7.5), 37°C, 0 min): 10 µM | Iab / IVa Formed ([11]; Tris-HCl buffer, 20 min): 10 µM | Iab / IVa Formed ([11]; Tris-HCl buffer, 40 min): 7.6 µM | Iab / IVa Formed ([11]; Tris-HCl buffer, 60 min): 10 µM | Iab / IVa Formed ([12]; 0 min): 8.5 µM | Iab / IVa Formed ([12]; 20 min): 9.2 µM | Iab / IVa Formed ([12]; 40 min): 9.2 µM | Iab / IVa Formed ([12]; 60 min): 8.7 µM
Structure (SMILES): COc1cnc(OC)c2c1c(C(=O)C(=O)N1CCN(C(=O)c3ccccc3)CC1)cn2COP(=O)(O)O [Iab, {3-[(4-benzoylpiperazin-1-yl)(oxo)acetyl]-4,7-dimethoxy-1H-pyrrolo[2,3-c]pyridin-1-yl}methyl dihydrogen phosphate, L-lysine salt (1:1)]
concentration of aqueous solutions prepared for in vivo toxicology studies [6]: > 100 mg/mL | solution and solid stabilities [9]: acceptable solution and solid stabilities | difference in AUC and Cmax of IVa between fasted and fed dogs ([10]; dogs receiving Iab capsules): No significant differences; also recorded: not significantly different

Structure (SMILES): O=C(C(=O)N1CCN(C(=O)c2ccccc2)CC1)c1cn(COP(=O)(O)O)c2c(-n3ccnn3)ncc(F)c12 [Ibb, [3-[(4-benzoylpiperazin-1-yl)(oxo)acetyl]-4-fluoro-7-(1H-1,2,3-triazol-1-yl)-1H-pyrrolo[2,3-c]pyridin-1-yl]methyl dihydrogen phosphate, L-lysine salt (1:1)]
half-life at 15 μM (in vitro [1]): 11.7 h | half-life at 10 μM [2, 13]: 198 min | half-life at 10 μM [2, 14]: 16 min | half-life at 10 μM [2, 15]: 2 min | half-life at 15 μM (in vitro [3]): 0.25 h | Ibb ([4]; 0 min): 13 µM | Ibb ([4]; 15 min): 12 µM | Ibb ([4]; 30 min): 15 µM | Ibb ([4]; 45 min): 16 µM | Ibb ([4]; 60 min): 13 µM | Ibb ([4]; 90 min): 16 µM | conversion of prodrug to parent in blood containing EDTA [4]: < 2% | Ibb ([5]; 0 min): 16 µM | Ibb ([5]; 15 min): 15 µM | Ibb ([5]; 30 min): 16 µM | Ibb ([5]; 45 min): 16 µM | Ibb ([5]; 60 min): 16 µM | Ibb ([5]; 90 min): 18 µM | conversion of prodrug to parent in blood containing EDTA ([5]; human blood, 37°C, 60 min (Iab) or 90 min (Ibb, Icb)): < 2% | concentration of aqueous solutions prepared for in vivo toxicology studies [6]: > 75 mg/mL | hydrolysis in the presence of hepatocytes (human hepatocytes): hydrolyzed | half-life at 15 μM (in vitro [7]): 2.78 h | hydrolysis in the presence of hepatocytes (rat hepatocytes): hydrolyzed | solution and solid stabilities [9]: acceptable solution and solid stabilities | stability / conversion of prodrug to parent in Tris-HCl buffer ([11]; 37°C): less than 2% | Ibb ([11]; 0 min): 14 µM | Ibb ([11]; 15 min): 12 µM | Ibb ([11]; 30 min): 13 µM | Ibb ([11]; 45 min): 12 µM | Ibb ([11]; 60 min): 13 µM | Ibb ([11]; 90 min): 12 µM | Ibb ([12]; 0 min): 16 µM | Ibb ([12]; 15 min): 19 µM | Ibb ([12]; 30 min): 18 µM | Ibb ([12]; 45 min): 18 µM | Ibb ([12]; 60 min): 19 µM | Ibb ([12]; 90 min): 17 µM | conversion of prodrug to parent in blood containing EDTA ([12]; monkey blood, 37°C, 60 min (Iab) or 90 min (Ibb, Icb)): < 2%
